Measured values as given in US20250351832A1, “PHYTOCHEMICALS AS BIOPESTICIDES AND BIOSTIMULANTS” (KAY BEE BIO ORGANICS PVT. LTD., priority 2024, published 2025).
Like-named read-outs stand apart in the source and are kept apart here.

Tests used:
[1] = tested on: Citrus Canker (Xanthomonas citri pv. Citri); assay: Field trial, citrus canker (Ex. 117); details: for % Increase in yield over control / Yield (t/ha): citrus; for Citrus Canker severity, Pre spray: pre spray (baseline)
[2] = tested on: Pomegranate Bacterial Leaf Blight (BLB-Xanthomonas axonopodis pv Punicae); assay: Field trial, pomegranate bacterial leaf blight (Ex. 99); details: for % Increase in yield over control / Yield: pomegranate
[3] = tested on: Cotton Bacterial Leaf Blight (BLB-Xanthomonas citri pv. Malvacearum); assay: Field trial, cotton bacterial leaf blight, Embodiment 12 (Ex. 116); details: for % Increase over control: cotton yield; for % Disease reduction over Control / Yield: cotton
Alternaria alternata = assay: In vitro poisoned food technique against fungus (Ex. 20); assay type: cell-based; details: […]
tomato seedlings = assay: Response of tomato plants, greenhouse growth (Ex. 30); assay type: in vivo
chili seedlings = assay: Response of chili plants, greenhouse growth (Ex. 31); assay type: in vivo
Aphid [4] = tested on: Aphid
Mite [5] = details: Dose 1 ml/gm/lit.; 48 hrs
Mealy Bug [6] = details: Mealy Bug on cotton leaves, dose 1 ml/gm/lit., 48 Hrs.
Helicoverpa armigera [7] = details: Helicoverpa armigera on okra fruits, dose 1 ml/gm/lit., 72 Hrs.
Spodoptera litura [8] = details: 72 h, 1 mL or g/L
Thrips [9] = details: 48 h, 1 mL or g/L
Aphid [10] = details: 48 h, 1 mL or g/L
Mite [11] = details: mite on okra plants, green house, dose 1 ml/gm/lit. spray
Mealy Bug [12] = details: mealy bug on cotton plants, green house, dose 1 ml/gm/lit. spray
Helicoverpa armigera [13] = details: Helicoverpa armigera 3rd instar on chickpea plants, dose 1 ml/gm/lit. spray
Spodoptera litura [14] = details: Spodoptera litura 3rd instar on cabbage plants, dose 1 ml/gm/lit. spray
Thrips [15] = tested on: Thrips
[16] = cited from earlier work
Spodoptera litura [17] = assay: whole plant or invertebrate; details: 72 h
Thrips [18] = assay: whole plant or invertebrate; details: in Gossypium hirsutum, 48 h
Aphid [19] = assay: whole plant or invertebrate; details: 48 h
[20] = tomato seedlings, 10th day, dose 1 ml/gm/lit
[21] = tomato seedlings, dose 1 ml/gm/lit, 10th day
[22] = chili seedlings, dose 1 ml/gm/lit, 10th day
[23] = 48 hrs, corrected for water control
[24] = 72 hrs, corrected for water control
[25] = Table 13, descriptive, no test described
[26] = read-out: % Corrected Mortality at 48 Hrs.
[27] = read-out: % Mortality at 48 Hrs.

With `O=[N+]([O-])C(Br)(CO)CO` [Bronopol] the “% Disease reduction over Control” value ([1]; dose 500 ppm) was 72.62%, the “Citrus Canker severity, 1st spray 5rd Day” value ([1]; dose 500 ppm) was 38.48 and the “Citrus Canker severity, 1st spray 10th day” value ([1]; dose 500 ppm) was 33.15. The “Citrus Canker severity, 2nd spray 5rd day” value ([1]; dose 500 ppm) was 27.45, the “Citrus Canker severity, 2nd spray 10th Day” value ([1]; dose 500 ppm) was 22.45 and the “% Increase in yield over control” value ([1]; dose 500 ppm) was 3.61%. For the same molecule, the “Yield (t/ha)” value ([1]; dose 500 ppm) was 8.30 t/ha, the “Citrus Canker severity, Pre spray” value ([1]; dose 500 ppm) was 41.75 and the “% Disease reduction over Control” value ([2]; dose 500 ppm) was 66.68%. The “BLB severity 1st spray 3rd Day” value ([2]; dose 500 ppm) was 36.68, the “BLB severity 1st spray 5th day” value ([2]; dose 500 ppm) was 32.15 and the “BLB severity 2nd spray 3rd Day” value ([2]; dose 500 ppm) was 28.75. For the same molecule, the “BLB severity 2nd spray 5th Day” value ([2]; dose 500 ppm) was 26.65, the “% Increase in yield over control” value ([2]; dose 500 ppm) was 10.36% and the Yield ([2]; dose 500 ppm) was 10.55 t/ha. For the same molecule, the “cotton BLB severity” value ([3]; 1st spray, 5th Day, dose 500 ppm) was 31.33, the “cotton BLB severity” value ([3]; 1st spray, 10th Day, dose 500 ppm) was 27.10 and the “cotton BLB severity” value ([3]; 2nd spray, 5th Day, dose 500 ppm) was 25.60. The “cotton BLB severity” value ([3]; 2nd spray, 10th Day, dose 500 ppm) was 23.60, the “% Increase over control” value ([3]; dose 500 ppm) was 13.79% and the “% Disease reduction over Control” value ([3]; dose 500 ppm) was 66.38%. The Yield ([3]; dose 500 ppm) was 20.30 qtl/ha.

For `[Cl-].[Cu+2].[Cu+2].[OH-].[OH-].[OH-]` [Copper oxychloride], the “% Disease reduction over Control” value ([2]; dose 0.25%) was 67.92%, the “BLB severity 1st spray 3rd Day” value ([2]; dose 0.25%) was 36.65 and the “BLB severity 1st spray 5th day” value ([2]; dose 0.25%) was 30.15. For the same molecule, the “BLB severity 2nd spray 3rd Day” value ([2]; dose 0.25%) was 26.14, the “BLB severity 2nd spray 5th Day” value ([2]; dose 0.25%) was 25.66 and the “% Increase in yield over control” value ([2]; dose 0.25%) was 12.45%. The Yield ([2]; dose 0.25%) was 10.75 t/ha, the “cotton BLB severity” value ([3]; 1st spray, 5th Day, dose 0.25%) was 30.00 and the “cotton BLB severity” value ([3]; 1st spray, 10th Day, dose 0.25%) was 28.45. The “cotton BLB severity” value ([3]; 2nd spray, 5th Day, dose 0.25%) was 23.65, the “cotton BLB severity” value ([3]; 2nd spray, 10th Day, dose 0.25%) was 21.36 and the “% Increase over control” value ([3]; dose 0.25%) was 5.41%. For the same molecule, the “% Disease reduction over Control” value ([3]; dose 0.25%) was 69.57% and the Yield ([3]; dose 0.25%) was 18.50 qtl/ha.

In the case of `CCCCC[C@H](O)CC(=O)CCc1ccc(O)c(OC)c1` [Gingerol], the inhibition of growth at 1 mL or g/L (Alternaria alternata) was 51.7%, the “CCI Pre” value (tomato seedlings) was 12.65 and the “Plant Height Pre” value (tomato seedlings) was 5.62 cm. For the same molecule, the “Stem Girth Pre” value (tomato seedlings) was 1.35 mm, the “CCI 5th Day” value (tomato seedlings; 120 h) was 14.63 and the “Plant Height 5th Day” value (tomato seedlings; 120 h) was 6.45 cm. For the same molecule, the “Stem Girth 5th Day” value (tomato seedlings; 120 h) was 1.92 mm, the “CCI 10th Day” value (tomato seedlings; 240 h) was 16.87 and the “Plant Height 10th Day” value (tomato seedlings; 240 h) was 7.59 cm. For the same molecule, the “Root Length % Increase over control” value (tomato seedlings; 240 h) was 31.77%, the “Stem Girth 10th Day” value (tomato seedlings; 240 h) was 2.31 mm and the “Plant Height % Increase over pre on 10th Day” value (tomato seedlings; [20]) was 35.05%. The “Stem Girth % Increase over pre on 10th Day” value (tomato seedlings; [20]) was 70.52%, the “CCI % Increase over pre on 10th Day” value (tomato seedlings; [21]) was 33.36% and the “Root Length (cm) 10th Day” value (tomato seedlings; [21]) was 4.38 cm. For the same molecule, the “CCI Pre” value (chili seedlings) was 9.40, the “Plant Height (cm) Pre” value (chili seedlings) was 4.05 cm and the “CCI 5th Day” value (chili seedlings; 120 h) was 13.02. The “Plant Height (cm) 5th Day” value (chili seedlings; 120 h) was 5.95 cm, the “CCI 10th Day” value (chili seedlings; 240 h) was 16 and the “Plant Height (cm) 10th Day” value (chili seedlings; 240 h) was 6.65 cm. The “Root Lenght % Increase over control” value (chili seedlings; 240 h) was 37.61%, the “CCI % Increase over pre on 10th Day” value (chili seedlings; [22]) was 70.21% and the “Plant Height % Increase over pre on 10th Day” value (chili seedlings; [22]) was 64.20%. The “Root Lenght (cm) 10th Day” value (chili seedlings; [22]) was 3.77 cm, the “Stem Girth % Increase over pre on 10th Day” value (chili seedlings; [22]) was 45.00% and the “Total No. of dead insect at 48 Hrs.” value (Aphid [4]; 48 h) was 6.25. The “% Corrected Mortality at 48 Hrs.” value (Aphid [4]; Dose 1 ml/gm/lit., 48 hrs) was 57.14%, the “% Mortality at 48 Hrs.” value (Aphid [4]; Dose 1 ml/gm/lit., 48 hrs) was 62.50% and the “% Corrected Mortality at 48 Hrs.” value (Mite [5]) was 29.73%. The “% Mortality at 48 Hrs.” value (Mite [5]) was 35.00%, the “% Mortality at 48 Hrs.” value (Mealy Bug [6]) was 27.50% and the “% Corrected Mortality at 48 Hrs.” value (Mealy Bug [6]; corrected for water control) was 23.68%. The “% Mortality at 72 Hrs.” value (Helicoverpa armigera [7]) was 52.50%, the “% Corrected Mortality at 72 Hrs.” value (Helicoverpa armigera [7]; corrected for water control) was 52.50% and the “Total No. of dead insect at 72 Hrs.” value (Spodoptera litura [8]) was 4.00. The “Total No. of dead insect at 48 Hrs.” value (Thrips [9]) was 3.75, the “Total No. of dead insect at 48 Hrs.” value (Aphid [10]) was 65.00 and the “% Mortality at 48 Hrs.” value (Mite [11]; 48 hrs after application) was 30.00%. The “% Corrected Mortality at 48 Hrs.” value (Mite [11]; [23]) was 26.32%, the “% Mortality at 48 Hrs.” value (Mealy Bug [12]; 48 hrs after application) was 37.50% and the “% Corrected Mortality at 48 Hrs.” value (Mealy Bug [12]; [23]) was 30.56%. For the same molecule, the “% Mortality at 72 Hrs.” value (Helicoverpa armigera [13]; 72 hrs after application) was 50.00%, the “% Corrected Mortality at 72 Hrs.” value (Helicoverpa armigera [13]; [24]) was 50.00% and the “% Mortality at 72 Hrs.” value (Spodoptera litura [14]; 72 hrs after application) was 37.50%. The “% Corrected Mortality at 72 Hrs.” value (Spodoptera litura [14]; [24]) was 34.21%, the “Total No. of dead insect at 48 Hrs.” value (Thrips [15]; 48 h) was 30.00 and the “% Mortality at 48 Hrs.” value (Thrips [15]; thrips on cotton plants, greenhouse, dose 1 ml/gm/lit. spray, 48 hrs after application) was 30.00%. For the same molecule, the “% Corrected Mortality at 48 Hrs.” value (Thrips [15]; thrips on cotton plants, greenhouse, dose 1 ml/gm/lit. spray, 48 hrs, corrected for water control) was 22.22%, the “Antifungal Activity - Mode of action” value [16, 25] was “More effective in restricting” and the “Antioxidant Activity - Mode of action” value [16, 25] was “High antioxidant activity”. The “Bactericidal Activity - Mode of action” value [16, 25] was “Antibacterial activity”, the “Insecticidal Activities - Mode of action” value [16, 25] was “Exhibit repellent activity” and the “Nematicidal Activity - Mode of action” value [16, 25] was “Suppressed root knot egg”. For the same molecule, the “Virucidal Activity - Mode of action” value [16, 25] was “Inhibit viral nucleic”, the “Phytotonic Effect” value ([16]; Table 13, effect on plants, descriptive) was “Enhanced plant” and the mortality at 1 mL or g/L (Spodoptera litura [17]; read-out: % Corrected Mortality at 72 Hrs.) was 36.8%. The mortality at 1 mL or g/L (Spodoptera litura [17]; read-out: % Mortality at 72 Hrs.) was 40%, the mortality at 1 mL or g/L (Thrips [18]; [26]) was 28.6% and the mortality at 1 mL or g/L (Thrips [18]; [27]) was 37.5%. It also gave a mortality at 1 mL or g/L (Aphid [19]; [26]) of 58.8% and a mortality at 1 mL or g/L (Aphid [19]; [27]) of 65%.

In the case of Copper, the “% Disease reduction over Control” value ([1]; dose 0.25%) was 71.15%, the “Citrus Canker severity, 1st spray 5rd Day” value ([1]; dose 0.25%) was 39.56 and the “Citrus Canker severity, 1st spray 10th day” value ([1]; dose 0.25%) was 34.15. The “Citrus Canker severity, 2nd spray 5rd day” value ([1]; dose 0.25%) was 29.65, the “Citrus Canker severity, 2nd spray 10th Day” value ([1]; dose 0.25%) was 23.65 and the “% Increase in yield over control” value ([1]; dose 0.25%) was 13.04%. For the same molecule, the “Yield (t/ha)” value ([1]; dose 0.25%) was 9.20 t/ha and the “Citrus Canker severity, Pre spray” value ([1]; dose 0.25%) was 40.52.
